{
  "source": "patent US11744815B1",
  "about": "“Pharmaceutical composition of dimethylguanidino valeric acid and plant flavonoids for treating chronic inflammatory diseases and cancer” (priority 2022, dated 2023)",
  "key": {"mouse T cells": {"test_system": "mouse T cells", "assay": "Mitochondrial ROS by flow cytometry using CellROX Green, mouse T cells", "assay_type": "cell-based", "from_the_text": "(§1) The invention further investigated how DMGV suppresses cell proliferation and survival."}, "human T cells": {"test_system": "human T cells", "assay": "Mitochondrial ROS by flow cytometry using CellROX Green, human T cells", "assay_type": "cell-based", "from_the_text": "as §1"}, "Jurkat T cells": {"test_system": "Jurkat T cells", "assay": "Mitochondrial ROS by flow cytometry using CellROX Green, Jurkat T cells", "assay_type": "cell-based, human", "method": "as §1\nIn order to locate the cellular compartment of ROS generated by DMGV, Jurkat T cells were incubated with the mitochondria-specific ROS inhibitor MitoQ (100 nM) for 15 min before stimulation with DMGV (504) for ROS measurement.\nAs certain flavonoids are known to active MCU, we tested whether DMGV and the flavonoids activate MCU in the same manner. Jurkat T cells were treated with the flavonoids [kaempferol (5 μM), quercetin (25 μM), or daidzein (5 μM)]. […] The molecular docking simulator SwissDock predicted that the flavonoids and DMGV bind to MCU in a same pocket."}, "calcium flux": {"test_system": "calcium flux", "assay": "Calcium flux by flow cytometry using Fluo-8", "assay_type": "cell-based", "details": "Fluo-8", "method": "As a sudden influx of calcium to the mitochondria can cause ROS induction, we tested whether DMGV regulates calcium flux to induce ROS. Calcium flux was measured by flow cytometry using the calcium indicator Fluo-8. While stimulation of T cell receptor (TCR) by a stimulatory antibody triggered calcium release from ER (efflux), which in turn induced calcium influx from the outside to cytosol (influx). […] Because of the close proximity between ER and mitochondria, calcium efflux from ER leads to calcium import to the mitochondria, which can be mediated by MCU."}, "chronic colitis": {"test_system": "chronic colitis", "assay": "Chronic colitis by adoptive transfer of naïve CD4+ T cells", "assay_type": "in vivo, Rag2^−/− mice", "from_the_text": "The present invention tested if DMGV suppresses chronic T cell-mediated inflammation in two mouse models. In the first model, adoptive transfer of naïve CD4^+ T cells from syngeneic mice into immunodeficient (Rag2^−/−) mice induces chronic colitis similar to inflammatory bowel diseases (IBD) in humans, due to differentiation of T cells into pathogenic Th17 cells in the absence of regulatory T cells (Tregs). After adoptively transferring naïve CD4^+ T cells from syngeneic mice to recombinase activating gene-2-deficient (Rag2^−/−) mice to induce colitis, the mice showing the disease symptom in the form of loose stool around 4-6 weeks were randomly divided into two groups. One group (n=9) was treated with DMGV (i.p. 750 μg/mouse, twice a week) and the control group (n=11) with PBS up to 40 days and mortality was observed."}},
  "data": [
    {"substance": "dimethylguanidino valeric acid [DMGV]", "values": [
      {"measurement": "induction of mitochondrial ROS", "setting": "mouse T cells", "value": "rapidly induces mitochondrial ROS"},
      {"measurement": "induction of mitochondrial ROS", "setting": "human T cells", "value": "rapidly induces mitochondrial ROS"},
      {"measurement": "induction of mitochondrial ROS", "setting": "Jurkat T cells; Jurkat T cells", "value": "rapidly induces mitochondrial ROS"},
      {"measurement": "ROS induction in glucose-free medium", "setting": "Jurkat T cells; Jurkat T cells in RPMI without glucose for 24 h", "value": "does not induce ROS"},
      {"measurement": "dependence of DMGV-induced ROS on MCU", "setting": "Jurkat T cells; Ru360 or MCU KO", "value": "dependent on MCU"},
      {"measurement": "calcium efflux (release from ER)", "setting": "calcium flux", "value": "induced efflux"},
      {"measurement": "calcium influx from the outside to cytosol", "setting": "calcium flux", "value": "not influx"},
      {"measurement": "survival (mortality) of colitis mice", "setting": "chronic colitis; i.p. 750 μg/mouse, twice a week, up to 40 days, n=9", "value": "all except for one mouse survived"},
      {"measurement": "normalized IL-17A+ T cell number in colonic tissue", "setting": "chronic colitis; survived mice, compared to the control group", "value": "significantly lower"}
    ]}
  ]
}
